Source: ChEMBL document CHEMBL3351666, “Nocatriones A and B, photoprotective tetracenediones from a marine-derived Nocardiopsis sp” (J Nat Prod, 2014)

Tests used:
[1] = Cytotoxicity against human MCTT MC1233 cells assessed as reduction in cell viability at 1 to 10 uM incubated for 72 hrs by MTT assay; type: cell-based; conditions: mctt mc1233, 72 h
MCTT MC1233 = experiment: Reduction in UVB radiation-induced MMP1 secretion in human MCTT MC1233 cells exposed to 144 mJ/cm2 UVB irradiation by ELISA method; type: functional, cell-based
[2] = Cytotoxicity against human MCTT MC1233 cells exposed to 144 mJ/cm2 UVB irradiation assessed as reduction in cell viability at 1 to 10 uM incubated for 72 hrs by MTT assay; type: cell-based; conditions: mctt mc1233, 72 h
[3] = Reduction in UVB radiation-induced MMP1 secretion in human MCTT MC1233 cells at 10 uM exposed to 144 mJ/cm2 UVB irradiation by ELISA method; type: functional; conditions: MCTT MC1233, light or radiation study
[4] = Cytotoxicity against human ScienCell 2320 cells assessed as reduction in cell viability at 1 to 10 uM incubated for 72 hrs by MTT assay; type: cell-based; conditions: sciencell 2320, 72 h
[5] = Cytotoxicity against human ScienCell 2320 cells exposed to 144 mJ/cm2 UVB irradiation assessed as reduction in cell viability at 1 to 10 uM incubated for 72 hrs by MTT assay; type: cell-based; conditions: sciencell 2320, 72 h
[6] = Reduction in MMP1 secretion in human ScienCell 2320 cells at 10 uM by ELISA method; type: functional
[7] = Reduction in UVB radiation-induced MMP1 secretion in human ScienCell 2320 cells at 10 uM exposed to 144 mJ/cm2 UVB irradiation by ELISA method; type: functional; conditions: ScienCell 2320, light or radiation study
[8] = Reduction in MMP1 secretion in human MCTT MC1233 cells at 5 uM by ELISA method; type: functional
[9] = Reduction in MMP1 secretion in human MCTT MC1233 cells at 10 uM by ELISA method; type: functional

| SMILES | Activity [1] | inhibition (MCTT MC1233) | Activity [2] | inhibition at 10 µM [3] | Activity [4] | Activity [5] | inhibition at 10 µM [6] | inhibition at 10 µM [7] | inhibition at 5 µM [8] | inhibition at 10 µM [9] |
| --- | --- | --- | --- | --- | --- | --- | --- | --- | --- | --- |
| Cc1c(-c2cc(O)cc(=O)o2)c(O)cc2cc3c(c(O)c12)C(=O)c1c(O)cc(O)cc1C3=O | Non-toxic | Dose-dependent effect | Non-toxic | 18% | Non-toxic | Non-toxic | 93% | 91% |  |  |
| Cc1c2c(cc(O)c1-c1cc(O)cc(=O)o1)C(=O)c1cc3cc(O)cc(O)c3c(O)c1C2=O | Non-toxic | Dose-dependent effect | Non-toxic | 65% | Non-toxic | Non-toxic | 99% | 99% | 58% | 83% |
